Results: patent publication US11376234B2, “Ammonia metabolism promoter” (Kao Corporation, priority 2018, dated 2022)
Marks after values point to notes of the source that are not given here.

Tests used:
primary hepatocytes = assay: Amount of change in ammonia in culture medium of primary hepatocytes (Example 2); type: cell-based, mouse; conditions: for Ammonia change amount in culture medium, Increasing rate relative to control (%): 5 mM ammonium chloride, 24 hours, control = 100; for amount of change in ammonia in the culture medium relative to the control (in words): Dunnett's test, n=4
Protocol: For cells, a hepatocyte culture kit (derived from a 10-week-old male Balb/c mouse, 24 wells, 1×10^5 cells/well, Cosmo Bio) was used. A final concentration of 5 mM of ammonium chloride (015-02991, Wako) and 1.4 μM or 4.2 μM of the following catechins (EGC, Cg or ECg) were added to a medium containing high glucose DMEM (31053028, Gibco) containing GlutaMAX (35050-061, Gibco), penicillin/streptomycin (168-23191, Wako) and ascorbic acid (014-04801, Wako), and the cells were cultured therein: EGC (NH020203, Nagara Science Co., Ltd.); Cg (NH 021302, Nagara Science Co., Ltd.); and ECg (NH 020302, Nagara Science Co., Ltd.). Cells cultured in a medium without any added catechins were used as a control. The culture supernatant was collected 24 hours later, and the ammonia contained therein was quantitatively determined using an ammonia assay kit (Abcam). The decrement in the ammonia amount in the culture medium 24 hour after addition of ammonium chloride and catechins relative to the ammonia amount at the time of addition was defined as an amount of change in ammonia in the culture medium.
Each value in Table 1 represents the increasing rate of the amount of change in ammonia relative to that of the control. The statistical processing was performed by using multigroup comparison by Dunnett's test for n=4 per group (**: p <0.001, *: p<0.05).

[1] = tested on: primary cultured hepatocytes; assay: Urea production of hepatocytes with citrulline and arginine (Reference Example); type: cell-based; conditions: 5 mM ammonium chloride, 24 hours; Arg+Cit 0.5 mM each, Cit 1 mM; vs control
Protocol: Cells were recovered from the liver of each mouse and dead cells were removed, in the same procedure as in Example 1. Thereafter, cells were suspended in a DMEM medium, seeded at 10^5 cells/well in a 24-well plate, and cultured.
The cells 24 hours after seeding were washed twice with PBS. Thereafter, the medium was replaced with an FBS, arginine, leucine free DMEM medium (D9443, Sigma), and 5 mM of ammonium chloride (control), ammonium chloride+0.5 mM of L-arginine+0.5 mM of L-citrulline (Arg+Cit), or ammonium chloride+1 mM of L-citrulline (Cit) was added thereto. The culture supernatant was collected 24 hours later, and the urea contained therein was quantitatively determined with QuantiChrom Urea Assay Kit (BioAssay Systems).

Compound | Ammonia change amount in culture medium, Increasing rate relative to control (%) (primary hepatocytes; 1.4 μM) | Ammonia change amount in culture medium, Increasing rate relative to control (%) (primary hepatocytes; 4.2 μM) | amount of change in ammonia in the culture medium relative to the control (in words) (primary hepatocytes; 4.2 μM) | amount of urea production by hepatocytes [1]
Oc1cc(O)c2c(c1)O[C@H](c1cc(O)c(O)c(O)c1)[C@H](O)C2 [EGC, epigallocatechin] | 122% | 186** % | significantly increases | –
NC(=O)NCCC[C@H](N)C(=O)O [Cit, L-citrulline] | – | – | – | significantly increased
catechin gallate [Cg] | – | 174* % | significantly increases | –
O=C(O[C@@H]1Cc2c(O)cc(O)cc2O[C@@H]1c1ccc(O)c(O)c1)c1cc(O)c(O)c(O)c1 [ECg, epicatechin gallate] | – | 126% | – | –
